Reference: article PMC10321442 (Preventive Nutrition and Food Science, 2023)

Target: α-amylase (Aspergillus oryzae, UniProt P0C1B3)
Assay: amylose hydrolysis inhibition at […], peroxidase-glucose oxidase readout
Assay type: biochemical
Conditions: read-out: % inhibition at 0.50 mM

COc1cc(/C=C/C(=O)O[C@H]2CC[C@]34C[C@]35CC[C@]3(C)[C@@H]([C@H](C)CCC=C(C)C)CC[C@@]3(C)[C@@H]5CC[C@H]4C2(C)C)ccc1O [Cycloartenyl ferulate]
inhibition at 500 µM: 12.7 ± 1.11%
